These compounds were tested against bovine cerebral TPK1 (Bos taurus, UniProt A0A059UE90) (assay: Inhibitory activity against P-GS1 phosphorylation by bovine cerebral TPK1). Conditions: not given.
Assay type: biochemical
Experimental: Inhibitory Activity of the Medicament of the Present Invention Against P-GS1 Phosphorylation by Bovine Cerebral TPK1 […] The phosphorylation was started by adding ATP, and the reaction was conducted at 25° C. for 2 hours, and then stopped by adding 21% perchloric acid on ice cooling. The reaction mixture was centrifuged at 12,000 rpm for 5 minutes and adsorbed on P81 paper (Whatmann), and then the paper was washed four times with 75 mM phosphoric acid, three times with water and once with acetone. The paper was dried, and the residual radioactivity was measured using a liquid scintillation counter.

Sequence of bovine cerebral TPK1 (A0A059UE90 1-419): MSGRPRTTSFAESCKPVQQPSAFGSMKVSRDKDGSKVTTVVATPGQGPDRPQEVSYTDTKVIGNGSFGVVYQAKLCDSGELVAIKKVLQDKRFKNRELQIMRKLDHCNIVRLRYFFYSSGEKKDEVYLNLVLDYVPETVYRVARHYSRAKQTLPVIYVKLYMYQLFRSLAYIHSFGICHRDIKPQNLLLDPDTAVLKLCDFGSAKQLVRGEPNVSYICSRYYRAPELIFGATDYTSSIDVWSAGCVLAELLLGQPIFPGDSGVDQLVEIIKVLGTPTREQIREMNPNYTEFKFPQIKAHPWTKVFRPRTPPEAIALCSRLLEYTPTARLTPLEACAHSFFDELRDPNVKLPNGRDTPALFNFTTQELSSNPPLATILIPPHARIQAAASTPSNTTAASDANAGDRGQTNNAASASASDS

Compound	IC50 [nM]
Cn1c(O[C@H]2C[C@H]3CC[C@@H](C2)N3)nc(-c2ccncn2)cc1=O [Compound No. 2.101, endo-2-(8-Aza-bicyclo[3.2.1]oct-3-yloxy)-1-methyl-1H-[4,4′] bipyrimidinyl-6-one]	115 to 342

Same assay, conditions: P-GS1 phosphorylation, 41.7 μM [γ-32P] ATP, 25° C., 2 hours; read-out: IC50

IC50 [nM]	Compound
6.4	CN1CCN(Cc2ccc(N3CCC(Oc4nc(-c5ccncn5)cc(=O)n4C)CC3)cc2)CC1 [Compound No. 1.203, 1-Methyl-2-{1-[4-(4-methyl-piperazin-1-ylmethyl)phenyl]piperidin-4-yloxy}-1H-[4,4′] bipyrimidinyl-6-one]
11.7	Cn1c(OC2CCCN(c3ccccn3)C2)nc(-c2ccncn2)cc1=O (stereo not shown) [1.108, 1-Methyl-2-(1-pyridin-2-yl-piperidin-3-yloxy)-1H-[4,4′]bipyrimidinyl-6-one]
41.6	Cn1c(OCC2CCN(c3ccc(CN4CCCCC4)cc3)CC2)nc(-c2ccncn2)cc1=O [1.233, 1-Methyl-2-[1-(4-piperidin-1-ylmethyl-phenyl)piperidin-4-ylmethoxy]-1H-[4,4′] bipyrimidinyl-6-one]
23.7	CN1Cc2ccc(N3CCC(Oc4nc(-c5ccncn5)cc(=O)n4C)CC3)cc2C1 [1.226, 1-Methyl-2-[1-(2-methyl-2,3-dihydro-1H-isoindol-5-yl)piperidin-4-yloxy]-1H-[4,4′]bipyrimidinyl-6-one]
115	Cn1c(O[C@H]2CC[C@H](c3ccc(CO)cc3)CC2)nc(-c2ccncn2)cc1=O [Compound No. 1.901, 2-[trans-4-(4-Hydroxymethyl-phenyl)cyclohexyloxy]-1-methyl-1H-[4,4′]bipyrimidinyl-6-one]
150	CN1CCC(CCN2CCC(Oc3nc(-c4ccncn4)cc(=O)n3C)CC2)CC1 [1.503, 1-Methyl-2-{1-[2-(1-methyl-piperidin-4-yl)ethyl]piperidin-4-yloxy)-1H-[4,4′]bipyrimidinyl-6-one]
61.4	Cn1c(OC2CCCN(c3ccc(F)cc3)C2)nc(-c2ccncn2)cc1=O (stereo not shown) [1.105, 2-[1-(4-Fluoro-phenyl)piperidin-3-yloxy]-1-methyl-1H-[4,4′] bipyrimidinyl-6-one]
108	Cn1c(OC2CCN(C(=O)Oc3ccccc3)CC2)nc(-c2ccncn2)cc1=O [1.112, Phenyl 4-(1-methyl-6-oxo-1,6-dihydro-[4,4′]bipyrimidinyl-2-yloxy) piperidine-1-carboxylate]
31.5	Cn1c(OC2CCN(c3cccc(CN4CCOCC4)c3)CC2)nc(-c2ccncn2)cc1=O [1.221, 1-Methyl-2-[1-(3-morpholin-4-ylmethyl-phenyl)piperidin-4-yloxy]-1H-[4,4′]bipyrimidinyl-6-one]
21.5	CN1CCN(Cc2cccc(N3CCC(Oc4nc(-c5ccncn5)cc(=O)n4C)CC3)c2)CC1 [1.222, 1-Methyl-2-{1-[3-(4-methyl-piperazin-1-ylmethyl)phenyl]piperidin-4-yloxy}-1H-[4,4′] bipyrimidinyl-6-one]
977	Cn1c(OC2CCN(c3ccc(N4CCN(C(=O)OC(C)(C)C)CC4)cc3)CC2)nc(-c2ccncn2)cc1=O [1.211, tert-Butyl 4-{4-[4-(1-methyl-6-oxo-1,6-dihydro-[4,4′]bipyrimidinyl-2-yloxy)piperidin-1-yl]phenyl}piperazine-1-carboxylate]
58.6	CN(C)Cc1ccccc1N1CCC(Oc2nc(-c3ccncn3)cc(=O)n2C)CC1 [1.305, 2-[1-(2-Dimethylaminomethyl-phenyl)piperidin-4-yloxy]-1-methyl-1H-[4,4′]bipyrimidinyl-6-one]
73.2	Cn1c(OC[C@H]2CCN(c3ccsc3)C2)nc(-c2ccncc2F)cc1=O [Compound No. 2.206, 6-(3-Fluoro-pyridin-4-yl)-3-methyl-2-[(3S)-1-(thiophen-3-yl)pyrrolidin-3-ylmethoxy]-3H-pyrimidin-4-one]
18.4	Cn1c(OC[C@@H]2CCCN2c2ccc(F)cc2)nc(-c2ccncc2F)cc1=O [2.205, 2-[(2S)-1-(4-Fluoro-phenyl)pyrrolidin-2-ylmethoxy]-6-(3-fluoro-pyridin-4-yl)-3-methyl-3H-pyrimidin-4-one]
43.1	Cn1c(OC[C@H]2CCCN2c2ccc(F)cc2)nc(-c2ccncc2F)cc1=O [2.203, 2-[(2R)-1-(4-Fluoro-phenyl)pyrrolidin-2-ylmethoxy]-6-(3-fluoro-pyridin-4-yl)-3-methyl-3H-pyrimidin-4-one]
349	Cn1c(OCC(OC2CCCCO2)c2ccccc2)nc(-c2ccncn2)cc1=O (stereo not shown) [Compound No. 2.502, 1-Methyl-2-[2-phenyl-2-(tetrahydro-pyran-2-yloxy)ethoxy]-1H-[4,4′]bipyrimidinyl-6-one]
110	Cn1c(OCCc2ccc(CN3CCCCC3)cc2)nc(-c2ccncc2)cc1=O [Compound No. 2.401, 3-Methyl-2-[2-(4-piperidin-1-ylmethyl-phenyl)ethoxy]-6-pyridin-4-yl-3H-pyrimidin-4-one dihydrochioride]
12	Cn1c(OC2CCN(c3ccc(CN4CCCC4)cc3)CC2)nc(-c2ccncn2)cc1=O [1.217, 1-Methyl-2-[1-(4-pyrrolidin-1-ylmethyl-phenyl)piperidin-4-yloxy]-1H-[4,4′]bipyrimidinyl-6-one]
140	Cn1c(OC2CCN(C(=O)OCc3ccccc3)CC2)nc(-c2ccncn2)cc1=O [1.110, Benzyl 4-(1-methyl-6-oxo-1,6-dihydro-[4,4′]bipyrimidinyl-2-yloxy) piperidine-1-carboxylate]
50.1	Cn1c(OC2CCN(c3ccc(CN4CCCCC4)cc3)CC2)nc(-c2ccncc2)cc1=O [1.215, 3-Methyl-2-[1-(4-piperidin-1-ylmethyl-phenyl)piperidin-4-yloxy]-6-pyridin-4-yl-3H-pyrimidin-4-one]
8.9	Cn1c(OC2CCCN(c3cccc(F)c3)C2)nc(-c2ccncn2)cc1=O (stereo not shown) [1.104, 2-[1-(3-Fluoro-phenyl)piperidin-3-yloxy]-1-methyl-1H-[4,4′] bipyrimidinyl-6-one]
51.2	Cn1c(OC2CCN(c3ccccc3CN3CCCCC3)CC2)nc(-c2ccncn2)cc1=O [1.303, 1-Methyl-2-[1-(2-piperidin-1-ylmethyl-phenyl)piperidin-4-yloxy]-1H-[4,4′]bipyrimidinyl-6-one]
1.5	COc1cccc(N2CCCC(Oc3nc(-c4ccncn4)cc(=O)n3C)C2)c1 (stereo not shown) [1.106, 2-[1-(3-Methoxy-phenyl)piperidin-3-yloxy]-1-methyl-1H-[4,4′]bipyrimidinyl-6-one]
260	CCCCCCOc1nc(-c2ccncc2)cc(=O)n1C [2.003, 2-Hexyloxy-3-methyl-6-pyridin-4-yl-3H-pyrimidin-4-one]
37.6	Cn1c(OC[C@@H]2CCCN2c2ccc(F)cc2)nc(-c2ccncn2)cc1=O [2.204, 2-[(2S)-1-(4-Fluoro-phenyl)pyrrolidin-2-ylmethoxy]-1-methyl-1H-[4,4′]bipyrimidinyl-6-one]
28.2	COC(=O)N1CCCC(Oc2nc(-c3ccncn3)cc(=O)n2C)C1 (stereo not shown) [Compound No. 1.102, Methyl 3-(1-methyl-6-oxo-1,6-dihydro-[4,4′]bipyrimidinyl-2-yloxy) piperidine-1-carboxylate]

Compound	IC50 [nM]
Cn1c(O[C@H]2C[C@H]3CC[C@@H](C2)N3c2ccc(F)cc2)nc(-c2ccncn2)cc1=O [Compound No. 2.102, endo-2-[8-(4-Fluoro-phenyl)-8-aza-bicyclo[3.2.1]oct-3-yloxy]-1-methyl-1H-[4,4′]bipyrimidinyl-6-one]	236

Reference: patent US9006232B2, “Pyrimidone derivatives” (Mitsubishi Tanabe Pharma Corporation, priority 2009, dated 2015)
